These compounds were tested against CRBN-DDB1 (Homo sapiens, UniProt Q96SW2) (assay: HTRF binding of compounds to CRBN). Details: not given.
Protocol: Compound activity was monitored in a Homogenous Time-Resolved Fluorescence (HTRF) assay using 1-[5-({2-[2-(2-{[2-(2,6-dioxopiperidin-3-yl)-1,3-dioxo-2,3-dihydro-1H-isoindol-4-yl]oxy}acetamido)ethoxy]ethyl}carbamoyl)pentyl]-3,3-dimethyl-2-[(1E,3E)-5-[(2E)-1,3,3-trimethyl-5-sulfo-2,3-dihydro-1H-indol-2-ylidene]penta-1,3-dien-1-yl]-3H-indol-1-ium-5-sulfonate as a fluorescent probe. […] Compounds were stored in dry, ambient temperatures at 10 mM. A 10-point, 1:3 dilution series was prepared from 10 mM stock concentrations in Echo-compatible LDV plates. 10 nL of each compound dilution series was dispensed into assays wells using an Echo 650 (Labcyte inc. USA). […] The assay was then allowed to incubate for 30 min at ambient temperature after transferring compound. […] Analysis and IC50 values were derived using KNIME analytics (KNIME Zurich) transformation and fitting within Collaborative Drug Discovery (Collaborative Drug Discovery USA). Ki was derived from the geometric mean of the IC50 values using the Cheng-Prustoff transformation.

CRBN-DDB1, sequence (Q96SW2 whole entry): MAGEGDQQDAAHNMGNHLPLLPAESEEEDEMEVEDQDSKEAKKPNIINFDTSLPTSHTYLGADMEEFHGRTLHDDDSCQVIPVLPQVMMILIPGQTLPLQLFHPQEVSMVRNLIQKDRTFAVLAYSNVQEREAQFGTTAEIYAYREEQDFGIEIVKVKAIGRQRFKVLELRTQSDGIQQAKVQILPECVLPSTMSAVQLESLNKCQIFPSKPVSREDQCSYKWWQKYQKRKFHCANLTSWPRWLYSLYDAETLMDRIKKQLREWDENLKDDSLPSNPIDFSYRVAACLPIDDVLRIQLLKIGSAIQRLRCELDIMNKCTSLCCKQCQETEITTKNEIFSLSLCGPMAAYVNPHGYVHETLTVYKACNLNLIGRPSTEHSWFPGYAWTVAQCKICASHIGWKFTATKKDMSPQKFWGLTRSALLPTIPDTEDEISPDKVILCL
CRBN-DDB1, sequence (Q16531 whole entry partner): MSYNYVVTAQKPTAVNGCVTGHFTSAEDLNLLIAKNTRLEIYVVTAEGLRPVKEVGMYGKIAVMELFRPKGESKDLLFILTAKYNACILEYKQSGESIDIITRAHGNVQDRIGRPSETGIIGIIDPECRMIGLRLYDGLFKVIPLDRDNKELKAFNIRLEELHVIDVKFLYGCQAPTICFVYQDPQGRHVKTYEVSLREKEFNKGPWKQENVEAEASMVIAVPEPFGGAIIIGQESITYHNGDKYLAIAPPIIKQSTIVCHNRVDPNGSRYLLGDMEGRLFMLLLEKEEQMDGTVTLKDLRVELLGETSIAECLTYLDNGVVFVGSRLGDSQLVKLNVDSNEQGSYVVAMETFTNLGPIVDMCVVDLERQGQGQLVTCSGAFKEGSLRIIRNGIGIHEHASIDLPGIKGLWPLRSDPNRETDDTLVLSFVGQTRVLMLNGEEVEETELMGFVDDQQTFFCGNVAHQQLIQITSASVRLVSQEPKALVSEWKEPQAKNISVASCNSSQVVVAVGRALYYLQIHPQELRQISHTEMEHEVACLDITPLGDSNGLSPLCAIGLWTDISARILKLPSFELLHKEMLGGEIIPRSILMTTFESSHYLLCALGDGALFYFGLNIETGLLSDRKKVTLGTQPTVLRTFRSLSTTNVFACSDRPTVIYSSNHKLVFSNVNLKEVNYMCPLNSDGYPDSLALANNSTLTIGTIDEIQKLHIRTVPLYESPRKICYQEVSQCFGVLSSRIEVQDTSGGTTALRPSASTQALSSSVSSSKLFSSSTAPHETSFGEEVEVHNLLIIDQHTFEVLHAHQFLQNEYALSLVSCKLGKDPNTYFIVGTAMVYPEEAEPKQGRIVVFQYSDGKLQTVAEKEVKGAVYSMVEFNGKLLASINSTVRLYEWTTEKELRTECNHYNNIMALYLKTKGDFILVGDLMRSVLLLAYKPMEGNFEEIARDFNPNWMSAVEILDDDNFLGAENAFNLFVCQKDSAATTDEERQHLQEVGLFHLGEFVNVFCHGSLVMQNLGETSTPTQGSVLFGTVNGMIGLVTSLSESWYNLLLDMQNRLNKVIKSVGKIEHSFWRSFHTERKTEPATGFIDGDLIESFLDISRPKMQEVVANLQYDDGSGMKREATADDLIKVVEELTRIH

Compound	IC50
Cc1cc(NC(=O)OCc2ccc3c(c2)C(=O)N(C2CCC(=O)NC2=O)C3)cc(C#N)c1C (centres unmarked) [Compound 186]	100 to 1000 nM
O=C1CCC(N2Cc3ccc(COC(=O)Nc4cc(Cl)cc5c4OCC5)cc3C2=O)C(=O)N1 (centres unmarked) [Compound 189]	< 100 nM
O=C1CCC(N2Cc3ccc(COC(=O)NC45CC(F)(C4)C5)cc3C2=O)C(=O)N1 (centres unmarked) [Compound 190]	100 to 1000 nM
C[C@@H]1CCCN1c1ccc(NC(=O)OCc2ccc3c(c2)C(=O)N(C2CCC(=O)NC2=O)C3)nc1 (some centres unmarked) [Compound 192]	< 100 nM
O=C1CCC(N2Cc3ccc(COC(=O)NC45CC(N6CCCCC6)(C4)C5)cc3C2=O)C(=O)N1 (centres unmarked) [Compound 198]	100 to 1000 nM

Same assay, conditions: read-out: HTRF Class (Cereblon binding, HTRF IC50)

Compound	IC50
Cc1ccc(NC(=O)OCc2ccc3c(c2)C(=O)N(C2CCC(=O)NC2=O)C3)nc1Cl (centres unmarked) [Compound 183, (2-(2,6-dioxopiperidin-3-yl)-3-oxoisoindolin-5-yl)methyl (6-chloro-5-methylpyridin-2-yl)carbamate]	100 to 1000 nM
CC(C)(C)[C@H]1C[C@@H](NC(=O)OCc2ccc3c(c2)C(=O)N(C2CCC(=O)NC2=O)C3)C1 (stereo partly drawn) [Compound 184, cis-(2-(2,6-dioxopiperidin-3-yl)-3-oxoisoindolin-5-yl)methyl ((1s,3s)-3-(tert-butyl)cyclobutyl)carbamate]	100 to 1000 nM
CC(C)(C)[C@H]1C[C@H](NC(=O)OCc2ccc3c(c2)C(=O)N(C2CCC(=O)NC2=O)C3)C1 (stereo partly drawn) [Compound 185, trans-(2-(2,6-dioxopiperidin-3-yl)-3-oxoisoindolin-5-yl)methyl ((1s,3s)-3-(tert-butyl)cyclobutyl)carbamate]	100 to 1000 nM
O=C1CCC(N2Cc3ccc(COC(=O)Nc4ccc(F)c(OC(F)F)c4F)cc3C2=O)C(=O)N1 (centres unmarked) [Compound 191, (2-(2,6-dioxopiperidin-3-yl)-3-oxoisoindolin-5-yl)methyl (3-(difluoromethoxy)-2,4-difluorophenyl) carbamate]	100 to 1000 nM
O=C1CCC(N2Cc3ccc(COC(=O)NC45CC(C4)C5)cc3C2=O)C(=O)N1 (centres unmarked) [Compound 193, (2-(2,6-dioxopiperidin-3-yl)-3-oxoisoindolin-5-yl)methyl bicyclo[1.1.1]pentan-1-ylcarbamate]	100 to 1000 nM
Cc1cc(NC(=O)OCc2ccc3c(c2)C(=O)N(C2CCC(=O)NC2=O)C3)ncc1N1CCCC1 (centres unmarked) [Compound 194, (2-(2,6-dioxopiperidin-3-yl)-3-oxoisoindolin-5-yl)methyl (4-methyl-5-(pyrrolidin-1-yl)pyridin-2-yl) carbamate]	100 to 1000 nM
CC(C)(O)c1ccc(NC(=O)OCc2ccc3c(c2)C(=O)N(C2CCC(=O)NC2=O)C3)cc1 (centres unmarked) [Compound 195, (2-(2,6-dioxopiperidin-3-yl)-3-oxoisoindolin-5-yl)methyl (4-(2-hydroxypropan-2-yl)phenyl)carbamate]	100 to 1000 nM
Cc1cc(F)c(NC(=O)OCc2ccc3c(c2)C(=O)N(C2CCC(=O)NC2=O)C3)cc1Br (centres unmarked) [Compound 197, (2-(2,6-dioxopiperidin-3-yl)-3-oxoisoindolin-5-yl)methyl (5-bromo-2-fluoro-4-methylphenyl)carbamate]	< 100 nM
CC(C)(O)c1ccc(NC(=O)OCc2ccc3c(c2)C(=O)N(C2CCC(=O)NC2=O)C3)cn1 (centres unmarked) [Compound 199, (2-(2,6-dioxopiperidin-3-yl)-3-oxoisoindolin-5-yl)methyl (6-(2-hydroxypropan-2-yl)pyridin-3-yl)carbamate]	100 to 1000 nM
O=C1CCC(N2Cc3ccc(COC(=O)Nc4cc(OC(F)(F)F)c(F)cc4F)cc3C2=O)C(=O)N1 (centres unmarked) [Compound 200, (2-(2,6-dioxopiperidin-3-yl)-3-oxoisoindolin-5-yl)methyl (2,4-difluoro-5-(trifluoromethoxy)phenyl)carbamate]	100 to 1000 nM
Cc1cc(F)c(NC(=O)OCc2ccc3c(c2)C(=O)N(C2CCC(=O)NC2=O)C3)cc1OC(F)F (centres unmarked) [Compound 201, (2-(2,6-dioxopiperidin-3-yl)-3-oxoisoindolin-5-yl) methyl (5-(difluoromethoxy)-2-fluoro-4-methylphenyl)carbamate]	100 to 1000 nM
O=C1CCC(N2Cc3ccc(COC(=O)NC45CC(CF)(C4)C5)cc3C2=O)C(=O)N1 (centres unmarked) [Compound 202, (2-(2,6-dioxopiperidin-3-yl)-3-oxoisoindolin-5-yl)methyl (3-(fluoromethyl)bicyclo[1.1.1]pentan-1-yl) carbamate]	100 to 1000 nM
COC(=O)C12CC(NC(=O)OCc3ccc4c(c3)C(=O)N(C3CCC(=O)NC3=O)C4)(C1)C2 (centres unmarked) [Compound 203, methyl 3-((((2-(2,6-dioxopiperidin-3-yl)-3-oxoisoindolin-5-yl)methoxy)carbonyl)amino)bicyclo[1.1.1]pentane-1-carboxylate]	100 to 1000 nM
Cc1cc(F)c(NC(=O)OCc2ccc3c(c2)C(=O)N(C2CCC(=O)NC2=O)C3)cc1OC(F)(F)F (centres unmarked) [Compound 204, (2-(2,6-dioxopiperidin-3-yl)-3-oxoisoindolin-5-yl) methyl (2-fluoro-4-methyl-5-(trifluoromethoxy)phenyl)carbamate]	100 to 1000 nM
O=C1CCC(N2Cc3ccc(COC(=O)Nc4cc(F)c(OC(F)F)c(F)c4)cc3C2=O)C(=O)N1 (centres unmarked) [Compound 206, (2-(2,6-dioxopiperidin-3-yl)-3-oxoisoindolin-5-yl) methyl (4-(difluoromethoxy)-3,5-difluorophenyl)carbamate]	100 to 1000 nM
O=C1CCC(N2Cc3ccc(COC(=O)Nc4cc(C5CC5)ccc4F)cc3C2=O)C(=O)N1 (centres unmarked) [Compound 207, (2-(2,6-dioxopiperidin-3-yl)-3-oxoisoindolin-5-yl)methyl (5-cyclopropyl-2-fluorophenyl) carbamate]	< 100 nM
Cc1cc(F)c(NC(=O)OCc2ccc3c(c2)C(=O)N(C2CCC(=O)NC2=O)C3)cc1C (centres unmarked) [Compound 208, (2-(2,6-dioxopiperidin-3-yl)-3-oxoisoindolin-5-yl)methyl (2-fluoro-4,5-dimethylphenyl)carbamate]	100 to 1000 nM
O=C1CCC(N2Cc3ccc(COC(=O)Nc4ccc(C(O)C(F)(F)F)cc4)cc3C2=O)C(=O)N1 (centres unmarked) [Compound 209, (2-(2,6-dioxopiperidin-3-yl)-3-oxoisoindolin-5-yl)methyl (4-(2,2,2-trifluoro-1-hydroxyethyl)phenyl) carbamate]	100 to 1000 nM
Cc1cc(F)c(NC(=O)OCc2ccc3c(c2)C(=O)N(C2CCC(=O)NC2=O)C3)c(F)c1Cl (centres unmarked) [Compound 211, (2-(2,6-dioxopiperidin-3-yl)-3-oxoisoindolin-5-yl)methyl (3-chloro-2,6-difluoro-4-methylphenyl)carbamate]	< 100 nM
O=C1CCC(N2Cc3ccc(COC(=O)Nc4cc(F)c5c(c4)CCO5)cc3C2=O)C(=O)N1 (centres unmarked) [Compound 212, (2-(2,6-dioxopiperidin-3-yl)-3-oxoisoindolin-5-yl)methyl (7-fluoro-2,3-dihydrobenzofuran-5-yl)carbamate]	< 100 nM
Cc1cc(F)c(NC(=O)OCc2ccc3c(c2)C(=O)N(C2CCC(=O)NC2=O)C3)cc1F (centres unmarked) [Compound 213, (2-(2,6-dioxopiperidin-3-yl)-3-oxoisoindolin-5-yl)methyl (2,5-difluoro-4-methylphenyl)carbamate]	< 100 nM
O=C1CCC(N2Cc3ccc(COC(=O)NC45CC(N6CCOCC6)(C4)C5)cc3C2=O)C(=O)N1 (centres unmarked) [Compound 215, (2-(2,6-dioxopiperidin-3-yl)-3-oxoisoindolin-5-yl)methyl (3-morpholinobicyclo[1.1.1]pentan-1-yl)carbamate]	100 to 1000 nM
O=C1CCC(N2Cc3ccc(COC(=O)Nc4cccc(C5CC5)c4)cc3C2=O)C(=O)N1 (centres unmarked) [Compound 216, (2-(2,6-dioxopiperidin-3-yl)-3-oxoisoindolin-5-yl)methyl (3-cyclopropylphenyl)carbamate]	100 to 1000 nM
CC(C)c1cccc(NC(=O)OCc2ccc3c(c2)C(=O)N(C2CCC(=O)NC2=O)C3)c1 (centres unmarked) [Compound 217, (2-(2,6-dioxopiperidin-3-yl)-3-oxoisoindolin-5-yl)methyl (3-isopropylphenyl)carbamate]	100 to 1000 nM
O=C1CCC(N2Cc3ccc(COC(=O)NC45CC(C(F)F)(C4)C5)cc3C2=O)C(=O)N1 (centres unmarked) [Compound 219, (2-(2,6-dioxopiperidin-3-yl)-3-oxoisoindolin-5-yl)methyl (3-(difluoromethyl)bicyclo[1.1.1]pentan-1-yl) carbamate]	< 100 nM
CCc1cccc(NC(=O)OCc2ccc3c(c2)C(=O)N(C2CCC(=O)NC2=O)C3)c1 (centres unmarked) [Compound 220, (2-(2,6-dioxopiperidin-3-yl)-3-oxoisoindolin-5-yl)methyl (3-ethylphenyl)carbamate]	100 to 1000 nM
CC(C)Oc1ccc(F)c(NC(=O)OCc2ccc3c(c2)C(=O)N(C2CCC(=O)NC2=O)C3)c1 (centres unmarked) [Compound 221, (2-(2,6-dioxopiperidin-3-yl)-3-oxoisoindolin-5-yl)methyl (2-fluoro-5-isopropoxyphenyl)carbamate]	< 100 nM
CC(C)(C)Oc1ccc(F)c(NC(=O)OCc2ccc3c(c2)C(=O)N(C2CCC(=O)NC2=O)C3)c1 (centres unmarked) [Compound 222, (2-(2,6-dioxopiperidin-3-yl)-3-oxoisoindolin-5-yl)methyl (5-(tert-butoxy)-2-fluorophenyl)carbamate]	100 to 1000 nM
CCOc1ccc(F)c(NC(=O)OCc2ccc3c(c2)C(=O)N(C2CCC(=O)NC2=O)C3)c1 (centres unmarked) [Compound 223, (2-(2,6-dioxopiperidin-3-yl)-3-oxoisoindolin-5-yl)methyl (5-ethoxy-2-fluorophenyl)carbamate]	< 100 nM
O=C1CCC(N2Cc3ccc(COC(=O)NC45C6C7C4C4C5C6C74c4ccccc4)cc3C2=O)C(=O)N1 (centres unmarked) [Compound 225, (2-(2,6-dioxopiperidin-3-yl)-3-oxoisoindolin-5-yl)methyl (4-phenylcuban-1-yl)carbamate]	< 100 nM
